In the assay the test system is Nectria pseudotrichia. Description: Mold growth on jasmonate-infused plates, mold 2 isolated from avocado. In kind it is cell-based. To be noted: various concentrations in plates. The method, then: MDJ (TCI, CAS No.: 24851-98-7) and CJ were infused into potato dextrose agar (PDA, VWR Cat No.: 90003-494) petri dishes (100×15 mm VWR, Cat No: 25384-094) at concentrations ranging from 1 mM, 4.25 mM, and 10 mM. Each treatment was prepared using a technical grade stock solution of pure chemical (CJ or MDJ) diluted with TWEEN®-20 (VWR, CAS No.: […]). Culturable oyster mushroom and seedling mold served to create fungal mycelial plugs using a sterile 1 mL pipette tip (Eppendorf, Cat No.: 022491458) held upside down. The tips were used to make circle excisions (i.e., fungal plugs) from a mycelial mat grown on PDA with no biochemical infusions. Fungal pugs were then transferred to PDA infused with varying concentrations of CJ or MDJ, and control plates (no CJ or MDJ infusion) to monitor fungal growth at room temperature over time.
Based on the above results in Cannabis spp., additional fungi from various crops was sampled and tested. Plates comprising various concentrations of MDJ or MJ were prepared as described above.

These results are taken from patent publication US11638427B2, “Methods and compositions for altering secondary metabolites in plants” (Impello Biosciences, Inc, priority 2020, dated 2023).

For `CCCCCC1C(=O)CCC1CC(=O)OC` (stereo not shown) [MDJ, methyl dihydrojasmonate], the “growth of mold isolated from avocado (mold 2)” value was “effective at preventing the growth”.
